The values that follow come from patent publication US5101054A, “Novel fluorine-containing platinum complex” (priority 1989, dated 1992).

Like-named read-outs stand apart in the source and are kept apart here.

Data set [1] has as its system L1210 cells. Nature of the data set: Experiment 2 growth inhibition of L1210 cells. Format: cell-based, mouse. The note with it: text calls it IC50. The method, then:
The drug sensitivity (a) was determined according to the following equation. [formula]

In data set [2] the test system is cisplatin resistant mouse leukemia cells L1210 (L1210/CDDP). Nature of the data set: Experiment 2 growth inhibition of cisplatin resistant L1210/CDDP cells. Format: cell-based.
A short description of data set [3]: Experiment 3 blood urea nitrogen (BUN) and body weight in ICR mice. The note with it: for Difference of weights: average weight 12th day vs 1st day; for BUN value: blood on 12th day, control 27.2 ± 1.9.
Procedure: (§1) Test compounds were administered to ICR mice (aged: 8 weeks) on the 1st day, the 5th day and the 9th day. The blood was collected therefrom on the 12th day, and the concentrations of blood urea nitrogen (BUN) were determined.
(§2) *Control group: druguntreated normal mouse
Data set [4] relates to Mouse leukemia cells L1210. Nature of the data set: Experiment 1 anti-tumor activity test in L1210 implanted CDF1 mice. Format: in vivo. The note with it: for T/C: L1210 i.p. implanted CDF1 mice; for Number of survived mice (on 30th day): survivors/total on 30th day. The method, then: Mouse leukemia cells L1210 (1×10^5) were implanted intraperitoneally to CDF1 mice (female, aged: 8 weeks) on the 0 day of implantation. CDDP and CBDCA were used as a reference. The anti-tumor activity of the platinum complexes in L1210 implanted mice were expressed by the T/C value, which was determined according to the following equation, and by the number of mice which survived until the 30th day of implantation. [formula]

For data set [5] the following is noted: mouse, in vivo.
Procedure: as §1, §2

For the molecule `N.N.O=C([O-])C1(C(=O)[O-])CCC1.[Pt+2]` [CBDCA, cisdiamino-1,1-cyclobutanedicarboxylato platinum (II)], in data set [1], the IC50 worked out at 0.25 µg/mL. Besides, the “IC50 L1210/CDDP” value in data set [2] was determined as 1.82 µg/mL. In addition, the Difference of weights in data set [3] (dose 100 mg/kg on days 1, 5, 9) is given as -3.0 g. In addition, the BUN value in data set [3] (dose 100 mg/kg on days 1, 5, 9) amounted to 21.0 ± 4.0 mg/dL. Moreover, the T/C in data set [4] (dose 12.5 mg/kg) amounted to 139%; in data set [4] (dose 25 mg/kg), 199%; in data set [4] (dose 50 mg/kg), 340%; in data set [4] (dose 100 mg/kg), 366%. Moreover, the “Number of survived mice (on 30th day)” value in data set [4] (dose 12.5 mg/kg) is reported as 0/6; in data set [4] (dose 25 mg/kg), 0/6; in data set [4] (dose 50 mg/kg), 2/6; in data set [4] (dose 100 mg/kg), 2/6.
Consider `N.N.[Cl][Pt][Cl]` [CDDP, cis-dichlorodiamine platinum (II)], for which, in data set [2], the “IC50 L1210/CDDP” value amounted to 0.50 µg/mL. Further, the Difference of weights in data set [3] (dose 18 mg/kg on days 1, 5, 9) was -4.8 g; in data set [3] (dose 25 mg/kg on days 1, 5, 9) it was -8.9 g. Further, the BUN value in data set [3] (dose 18 mg/kg on days 1, 5, 9) was 83.7 mg/dL; in data set [3] (dose 25 mg/kg on days 1, 5, 9), 112.3 ± 16.6 mg/dL. Besides, the T/C in data set [4] (dose 6.25 mg/kg) is recorded as 227%; in data set [4] (dose 12.5 mg/kg) it was 282%; in data set [4] (dose 25 mg/kg) it was 367%. Besides, the “Number of survived mice (on 30th day)” value in data set [4] (dose 6.25 mg/kg) is 0/6; in data set [4] (dose 12.5 mg/kg) it was 1/6; in data set [4] (dose 25 mg/kg) it was 4/6.
As to `CC(CN)(CN)C(F)(F)F.O=C([O-])C1(C(=O)[O-])CCC1.[Pt+2]` [Compound of Ex. 2, cis-(2-methyl-2-trifluoromethyl-1,3-propanediamine)-1,1-cyclobutanedicarboxylato platinum (II)], the values for the T/C in data set [4] (dose 50 mg/kg) and in data set [4] (dose 100 mg/kg) were 192% and 267%, respectively. Further, the “Number of survived mice (on 30th day)” value in data set [4] (dose 50 mg/kg) and in data set [4] (dose 100 mg/kg) was 0/6 each time.
On to “cis-dichloro-(2-methyl-2-trifluoromethyl-1,3-propanediamine)platinum (II) [Compound of Ex. 1]”, for which, in data set [2], the “IC50 L1210/CDDP” value is 0.10 µg/mL. The BUN value was found to be 23.3 mg/dL in data set [5] (25 mg/kg) and 17.8 mg/dL in data set [5] (50 mg/kg). Further, the results for the Difference of weights in data set [5] (25 mg/kg) and in data set [5] (50 mg/kg) were -2.3 g and -5.4 g, respectively. Also, the T/C is listed as over 304% in data set [4] (dose 12.5 mg/kg), 375% in data set [4] (dose 25 mg/kg) and 273% in data set [4] (dose 50 mg/kg). In addition, the figures for the “Number of survived mice (on 30th day)” value in data set [4] (dose 12.5 mg/kg), in data set [4] (dose 25 mg/kg) and in data set [4] (dose 50 mg/kg) were 3/6, 6/6 and 0/6, respectively.
